Like-named read-outs stand apart in the source and are kept apart here. Residues, ends and D or L forms follow the SMILES beside them. No end group written: not given here.
What was measured:
[1] = system: Escherichia coli ATCC 25922; type: cell-based
Procedure: (§1) To measure the antimicrobial activity of our selected putative AMPs in vitro, broth microdilution assays were conducted to determine the minimum inhibitory and minimum bactericidal concentrations (MICs and MBCs, respectively), as outlined by the Clinical and Laboratory Standards Institute [CLSI] ([2015]). The adaptations for testing cationic AMPs, as described previously (Wiegand et al., [2008]), were incorporated. The selected peptides were tested against laboratory isolates of E. coli 25922 and S. aureus 29213, which were purchased from the American Type Culture Collection (ATCC; Manassas, VA, USA). Bacteria from frozen stocks were streaked onto nonselective Columbia blood agar with 5% sheep blood (Oxoid) and incubated for 18–24 h at 37°C. To ensure the uniform colony health before the assay, 2–4 colonies were streaked onto a new agar plate and incubated for another 18–24 h at 37°C on the next day. To create a standardized bacterial inoculum, isolated colonies were suspended in Mueller‐Hinton Broth (MHB; Sigma‐Aldrich, St. Louis, MO, USA). The suspension was adjusted to an optical density of 0.08–0.1 at 600 nm, which corresponds to a 0.5 McFarland standard of approximately 1–2 × 10^8 colony‐forming units (CFU)/mL. The inoculum was then diluted 1:250, resulting in a final concentration of 5 ± 3 × 10^5 CFU/mL. The target bacterial density was confirmed by measuring the total viability counts from the final tested inoculum.
(§2) The selected putative AMPs were purchased from and synthesized by GenScript (Piscataway, NJ, USA) in lyophilized format. The peptides were stored at −20°C and were suspended in sterile ultrapure water prior to testing. A two‐fold serial dilution of 1280 to 2.5 μg/mL was prepared in sterile 96‐well polypropylene microtiter plates (Greiner Bio‐One #650261, Kremsmünster, Austria). Then, 100 μL of the standardized bacterial inoculum was added to each well, resulting in a final AMP testing range of 128 to 0.25 μg/mL. The MIC values were determined as the lowest peptide concentration in which no visible bacterial growth was observed after a 20–24 h incubation at 37°C. To determine the MBC values, well contents of the MIC and the two adjacent wells containing the two‐ and four‐fold higher peptide concentrations were plated onto nonselective nutrient agar. The concentration in which 99.9% of the inoculum was killed after an incubation for 24 h at 37°C was reported as the MBC.
(§3) In our tests, we used Ranatuerin‐4—a known AMP from the American bullfrog (Goraya et al., [1998]), and an in‐house peptide [TKPKG]3 (OT15) as the positive and negative control peptides, respectively. We note that OT15 was truncated and derived from a negative control peptide [TKPKG]4 (OT20), not antimicrobial but sharing similar characteristics to AMPs, used in previous studies (Horváti et al., [2017]).

[2] = system: Staphylococcus aureus ATCC 29213; type: cell-based
Procedure: as §1, §2, §3

[3] = broth microdilution (CLSI, adapted for cationic AMPs), MHB, 5 ± 3 × 10^5 CFU/mL, 20–24 h at 37°C, tested 0.25–128 μg/mL, range from three independent experiments in duplicate, one maximum and one minimum data point dropped
[4] = concentration killing 99.9% of inoculum, plated on nutrient agar, 24 h at 37°C, range from three independent experiments in duplicate, one maximum and one minimum data point dropped

| Molecule | MIC, E. coli ATCC 25922 ([1]; ATCC 25922) [µg/mL] | MIC, S. aureus ATCC 29213 ([2]; ATCC 29213) [µg/mL] | MIC, E. coli ATCC 25922 [1, 3] [µg/mL] | MBC, E. coli ATCC 25922 [1, 4] [µg/mL] | MIC, S. aureus ATCC 29213 [2, 3] [µg/mL] | MBC, S. aureus ATCC 29213 [2, 4] [µg/mL] | MBC, E. coli ATCC 25922 ([1]; ATCC 25922, 24 h) [µg/mL] | MBC, S. aureus ATCC 29213 ([2]; ATCC 29213, 24 h) [µg/mL] |
| --- | --- | --- | --- | --- | --- | --- | --- | --- |
| GLIKRIIRQKR [GaGa2] | 128 | > 128 |  |  |  |  |  |  |
| RIRGHTIKG [DrMe6, putative AMP mined from UniProt O46201, Drosophila melanogaster] |  |  | > 128 | > 128 | > 128 | > 128 |  |  |
| YVSPVAIVKGLNIPL [Ovipin, reference compound] | > 128 | > 128 |  |  |  |  |  |  |
| GVLKKVIRHKR [HoSa6, putative AMP mined from UniProt P24821, Q29116; Homo sapiens, Sus scrofa] |  |  | > 128 | > 128 | > 128 | > 128 |  |  |
| CC[C@H](C)[C@H](NC(=O)[C@H](CC(C)C)NC(=O)[C@H](CC(=O)O)NC(=O)[C@H](CCCNC(=N)N)NC(=O)[C@H](CO)NC(=O)[C@H](CS)NC(=O)[C@H](Cc1c[nH]cn1)NC(=O)[C@H](Cc1c[nH]cn1)NC(=O)[C@H](Cc1c[nH]cn1)NC(=O)[C@H](Cc1ccc(O)cc1)NC(=O)[C@H](CC(C)C)NC(=O)[C@H](Cc1ccccc1)NC(=O)[C@H](CC(N)=O)NC(=O)[C@H](CC(C)C)NC(=O)[C@H](CC(C)C)NC(=O)[C@H](Cc1ccc(O)cc1)NC(=O)[C@H](CO)NC(=O)[C@H](CS)NC(=O)[C@@H](NC(=O)[C@H](Cc1c[nH]c2ccccc12)NC(=O)[C@H](Cc1ccccc1)NC(=O)[C@@H](NC(=O)[C@H](Cc1c[nH]c2ccccc12)NC(=O)[C@H](CC(N)=O)NC(=O)[C@H](CCCCN)NC(=O)[C@H](C)NC(=O)[C@H](Cc1c[nH]c2ccccc12)NC(=O)[C@H](CC(=O)O)NC(=O)[C@H](Cc1c[nH]c2ccccc12)NC(=O)[C@H](C)N)C(C)C)[C@@H](C)O)C(=O)N[C@@H](CCCNC(=N)N)C(=O)N[C@@H](CCCNC(=N)N)C(=O)O [ScPo1] (H-AWDWAKNWVFWTCSYLLNFLYHHHCSRDLIRR-OH; N-terminus and C-terminus assumed) | > 128 | > 128 |  |  |  |  | > 128 | > 128 |
| DLWFGLKTEGELAFVKRTIFDVIYKSAKRKR [ArTh10] | > 128 | > 128 |  |  |  |  | > 128 | > 128 |
| GLQKLINKIKSQMSRFSTKTNKICGP [HoSa1] | 16 | 128 |  |  |  |  | 16 to 32 |  |
| GRGRPKGRGRGRPRGRPRGSKR [GoGo1] |  |  | 64 |  | > 128 | > 128 |  |  |
| CSCC[C@H](NC(=O)[C@H](C)NC(=O)[C@H](CCC(=O)O)NC(=O)[C@H](Cc1c[nH]c2ccccc12)NC(=O)[C@H](CCCNC(=N)N)NC(=O)[C@@H](N)[C@@H](C)O)C(=O)N[C@@H](CCCCN)C(=O)N[C@@H](C)C(=O)N[C@@H](CCCCN)C(=O)N[C@@H](C)C(=O)N[C@H](C(=O)N[C@@H](CCC(=O)O)C(=O)N[C@@H](CC(C)C)C(=O)N[C@@H](CCCNC(=N)N)C(=O)N[C@H](C(=O)N[C@@H](CS)C(=O)N[C@@H](CS)C(=O)N[C@@H](C)C(=O)N[C@@H](CCCNC(=N)N)C(=O)N[C@@H](CCCNC(=N)N)C(=O)N[C@@H](CCCCN)C(=O)N[C@@H](CCCNC(=N)N)C(=O)O)C(C)C)[C@@H](C)O [HoSa2] (H-TRWEAMKAKATELRVCCARRKR-OH; N-terminus and C-terminus assumed) | > 128 | > 128 |  |  |  |  | > 128 | > 128 |
| FWNLNKKKKFFYKTVKNSIGQVILRDMSNN [DiDi2] | 16 | > 128 |  |  |  |  | 16 | > 128 |
| ARLDVAAEFRKKWNKWALSRGKR [SuSc1] |  |  | 128 |  | > 128 | > 128 |  |  |
| FLEKPPGPLGARPLGGK [MuMu4, putative AMP mined from UniProt Q9Z0L3, Mus musculus] |  |  | > 128 | > 128 | > 128 | > 128 |  |  |
| VMRSAGSRSSKR [OrSa6, putative AMP mined from UniProt Q5VRI5, Oryza sativa subsp. japonica] |  |  | > 128 | > 128 | > 128 | > 128 |  |  |
| QFFLPMILRLYVSRLFISKL [CaGl2, putative AMP mined from UniProt P05040, Candida glabrata] |  |  | > 128 | > 128 | > 128 | > 128 |  |  |
| FMRFGKRFMRFGRFGKSAEVENNIQIAAKQS [LySt2] | > 128 | > 128 |  |  |  |  | > 128 | > 128 |
| RVKRFWPLVPVAINTVAAGINLYKAIRRK [Chicken CATH-3, reference compound] | 2 to 4 | 2 |  |  |  |  | 2 to 4 | 2 to 4 |
| WIIQCWWRQVLEKLLAKRRR [HoSa4] |  | 64 to 128 | 32 | 32 | 64 to 128 |  |  |  |
| VLKKSEIRIDFISRTILHI [MoIn1, putative AMP mined from UniProt Q09WW0, Morus indica] |  |  |  |  | > 128 | > 128 |  |  |
